Key:
NALM-6 = assay: MTT cytotoxicity assay, NALM-6; assay type: cell-based, human; conditions: 48 h, read-out: IC50 against NALM-6
Description: (§1) Human B-lineage acute lymphoblastic leukemia (ALL) cell line NALM-6 and T-lineage ALL/lymphoma cell line MOLT-3 were obtained from American Type Culture Collection (Manassas, Va.). Cell lines were propagated in RPMI 1640 supplemented with 10% FCS, 4 mM glutamine, 100 units/ml penicillin G, and […] streptomycin sulfate. All tissue culture reagents were obtained from Life Technologies Inc. (Life Technologies, Inc., Gaithersburg, Md.). Cell lines were cultivated for a minimum of two passages after thawing prior to experimentation.
(§2) The cytotoxicity of the compounds were tested against human ALL cell lines using MTT assays (Roche Molecular Biochemicals, Indianapolis, Ind.), as described previously R. K. Narla et al., 1998, Clin Cancer Res 4:1405-14). Briefly, exponentially growing tumor cells were seeded into a 96-well plate at a density of 4×10^4 cells/well and incubated in medium containing the cinchona alkaloid compounds at concentrations ranging from 0.7 to 100 μM for 48 h at 37° C. in a humidified 5% CO2 atmosphere. To each well, 10 μL of MTT (final concentration, 0.5 mg/ml) was added, and the plates were incubated at 37° C. for 4 h to allow MTT to form formazan crystals by reacting with metabolically active cells. The formazan crystals were solubilized overnight at 37° C. in a solution containing 10% SDS and 0.01 M HCl. The absorbance of each well was measured in a microplate reader (Labsystems) at 540 nm and a reference wavelength of 690 nm. To translate the A540 values into the number of live cells in each well, the A540 values were compared to those on standard A540 versus cell number curves generated for each cell line. The percentage of survival was calculated using the formula: % survival=[Live cell number (test)/Live cell number (control)]×100. The IC50 values were calculated by nonlinear regression analysis using the graphed Prism Software version 2.0 (GraphPad Software, Inc., San Diego, Calif.).

MOLT-3 = assay: MTT cytotoxicity assay, MOLT-3; assay type: cell-based, human; conditions: 48 h, read-out: IC50 against MOLT-3
Description: as §1, §2

[1] = system: Lewis Lung Carcinoma Cells (LL2); assay: Syngeneic mouse model of K-Ras mutant NSCLC; assay type: in vivo
Description: Lewis Lung Carcinoma Cells (LL2) were purchased from ATCC. These murine NSCLC cells derived from C57BL/6 mice have a heterozygous Kras^G12C mutation (H. Y. Li et al., 2017, Cancer Immunol. Res. 5:767-77; B. Deskin et al., 2020, Translational Oncol. 13:135-45). Eight-9 weeks old, male C57/BL6 mice were inoculated with 1×10^6 LL2 cells in 200 μL PBS that were injected subcutaneously in the right flank. Treatments were initiated immediately after inoculation with LL/2 cells. Control mice were treated with intraperitoneal injections of 50 μL vehicle (DMSO), whereas test mice were treated with either AP-1 or AP-8 at the specified dose levels. Treatments were administered twice daily, 5 days per week for a total of 2 weeks. The clinical predictive value of this mouse model is well established (Kellar A, Egan C, Morris D. Preclinical Murine Models for Lung Cancer: Clinical Trial Applications. Biomed Research International Volume 2015|Article ID 621324|https://doi.org/10.1155/2015/621324).
In the 1st experiment, mice were treated twice daily with intraperitoneal injections of vehicle (50 μL DMSO) (N=10) or AP-1 (125 μg˜5 mg/kg in 50 μL DMSO) (N=7) according to a 5 days on 2 days off weekly schedule for 4 weeks. Mice were monitored daily until tumors became visible on and tumor growth rates were compared between day 16 and day 20 by measuring the size of the tumors with a caliper in three dimensions. Tumor size was expressed as tumor volume in cubic millimeters (mm3). Tumor volumes were calculated using the formula for the volume of a prolate spheroid, V=4/3×3.14×length/2×width/2×depth/2. […] The depicted Whisker plots represent the median and values (Min to Max. Shown all points) for the tumor volume on day 16 (FIG. 11A), day 18 (FIG. 11 FIG. 11B) and day 20 (C), and fold-growth in 48 hours (FIG. 11D; day 18 size: day 16 size) measured in tumors from mice in each group. […] Statistical significance between the two groups is shown by the depicted p-values above the plots were computed using an independent samples T-test.
Similarly, in the 2nd experiment, C57BL/6 mice were inoculated subcutaneously with LL2 cells (1×10^6/inoculum, volume: 200 μL) in the right flank. Mice were treated twice daily with intraperitoneal injections of vehicle (50 μL DMSO) (N=10) or AP-1 (100 μg˜4 mg/kg in 50 μL DMSO) (N=20) according to a 5 days on 2 days off weekly schedule for 2 weeks. Mice were monitored daily until tumors became visible on day 10. Tumor growth was assessed on day 10 and day 14 by measuring the size of the tumors with a caliper in three dimensions. Tumor size was expressed as tumor volume in cubic millimeters (mm^3). Tumor volumes were calculated using the formula for the volume of a prolate spheroid, V=4/3×3.14×length/2×width/2×depth/2. […]
In the 3rd experiment, mice were treated twice daily with intraperitoneal injections of vehicle (50 μL DMSO) (N=10) or AP-1 (125 μg˜5 mg/kg in 50 μL DMSO) (N=18) according to a 5 days on 2 days off weekly schedule for 4 weeks. Mice were monitored daily until tumors became visible on day 13. Tumor growth was re-assessed every other day between day 13 and day 29 by measuring the size of the tumors with a caliper in three dimensions. Tumor size was expressed as tumor volume in cubic millimeters (mm^3). Tumor volumes were calculated using the formula for the volume of a prolate spheroid, V=4/3×3.14×length/2×width/2×depth/2. […]

Compound	IC50 (NALM-6) [µM]	IC50 (MOLT-3) [µM]	fold-growth in 48 hours (day 18 size: day 16 size) ([1]; 1st experiment, 5 mg/kg i.p. twice daily)	average tumor volume versus vehicle ([1]; 1st experiment, 5 mg/kg i.p. twice daily, day 16 to day 20)	average tumor volume versus vehicle ([1]; 2nd experiment, 4 mg/kg i.p. twice daily, day 10 and day 14)	average tumor volume versus vehicle ([1]; 3rd experiment, 5 mg/kg i.p. twice daily, day 13 to day 29)	average tumor volume versus vehicle ([1]; 2 mg/kg i.p. twice daily, day 14 to day 25)
C=CC1CN2CCC1CC2C(Oc1cc(OC(c2ccnc3ccccc23)C2CC3CCN2CC3C=C)nc(OC(c2ccnc3ccccc23)C2CC3CCN2CC3C=C)n1)c1ccnc2ccccc12 (stereo not shown) [AP-1, 2,4,6-Tri(9-O-cinchoninyl)pyrimidine]	3.4	6.7	significantly reduced the rapid growth rate of the LL2 tumors	remained significantly smaller than the average tumor volume in vehicle-treated control mice	remained significantly smaller than the average tumor volume in vehicle-treated control mice	remained significantly smaller than the average tumor volume in vehicle-treated control mice	
2,4,6-Tri (9-O-dihydrocinchoninyl)pyrimidine [AP-5]	1.7						
CCC1CN2CCC1CC2C(Oc1cc(OC(c2ccnc3ccc(OC)cc23)C2CC3CCN2CC3CC)nc(OC(c2ccnc3ccc(OC)cc23)C2CC3CCN2CC3CC)n1)c1ccnc2ccc(OC)cc12 (stereo not shown) [AP-8, 2,4,6-Tri (9-O-dihydroquinidinyl)pyrimidine]	3.7	5.2					remained significantly smaller than the average tumor volume in vehicle-treated control mice

From patent publication US11066421B1, “Synthetic cinchona alkaloids against cancer” (Ares Pharmaceuticals, LLC, priority 2021, dated 2021)
